Assay results: patent US11285142B2, “Compositions and methods for identifying and treating dystonia disorders” (DUKE UNIVERSITY, priority 2015, dated 2022)
pEC50: −log10 of the molar value. Entries after “also recorded” stand apart in the source; their conditions may differ. Where a name gives a salt, the structure may show the parent alone. Read-outs that look alike come from different tables or passages of the source.

Key:
[1] = test system: delta-E Torsin1a localization in Flp-In T-REx 293 cells expressing EGFP-delta-E Torsin1a; experiment: delta-E Torsin1a mis-localization assay (high-content imaging, % cells with EGFP puncta); type: cell-based, human; settings: for ΔE TorsinA Mislocalization Assay Localization EC50 / pEC50 / Emax: Table 5; for effect on delta-E Torsin1a localization (in words): delta-E cell line, dose response; for % pathology CC-v2 (dose response Curve Class) / AC50 / % pathology Max Resp / % pathology Efficacy: Table 6; for AC50: AC = Active Concentration, read-out: % pathology AC50; for % pathology Max Resp / % pathology Efficacy: normalized scale; for % pathology Max Resp: WT-TorsinA line 0%, DYT1 mutant line 100% pathology; for % pathology Efficacy: −100% = WT TorsinA phenotype, 0% = Mutant TorsinA phenotype; for pEC50: read-out: ΔE TorsinA Mislocalization Assay Localization EC50; for Emax: read-out: ΔE TorsinA Mislocalization Assay Localization Max Efficacy
Experimental: To limit variation in expression levels associated with random integration or transient expression, single copies of either WT or delta-E human TOR1A cDNAs with N-terminal EGFP fusions were inserted at the FRT site in Flp-In™ T-Rex™ 293 cells (Thermo Fisher Scientific #R780-07) via flippase recombinase-mediated cassette exchange according to the manufacturer's recommended protocols.
The cells were maintained at 37° C./5% CO2. All experiments were performed on cells with fewer than 5 passages.
Torsin1a expression was also controlled by tetracycline induction to avoid selective pressure modifying the cellular phenotypes. […] The mutant phenotype was measured as the percentage of cells with one or more EGFP puncta using automated high-content imaging analysis (see infra).
The image analysis algorithm was developed using the Cellomics ArrayScan V CompartmentAnalysisV2 protocol. Hoechst's nuclear staining (Ch1: excitation 350 nm; emission 461 nm) was used for focusing and for cell identification by nuclear size, shape, and intensity. […] Detected cells were gated according to nuclear area, length-to-width ratio, and perimeter-to-area ratio. For the purpose of analysis, cell bodies were defined by a radius of 10 μm from the outer edge of the defined nucleus. Overlapping cells were automatically segmented according to the Cellomics ArrayScanV CompartmentAnalysisV2 object segmentation feature. EGFP fluorescence (Ch2: excitation 488 nm; emission 509 nm) was used for puncta detection. […] Torsin1a puncta were identified using the spot detection feature of the Compartmental AnalysisV2 protocol. The percentage of cells containing one or more puncta was used as the primary metric in this assay.
(§1) In order to test this model directly, the delta-E Torsin1a cell line was treated with compounds targeting the eIF2-alpha signaling pathway (FIG. 2). […] The following day, serial drug dilutions were prepared at 2× final concentration in assay media containing 10 μg/mL tetracycline and 30 μL of the drug/tetracycline mixture was added to the appropriate wells, while control wells received 30 μL of assay media alone or assay media+10 μg/mL tetracycline (final tetracycline concentration for all wells except negative controls: 5 μg/mL). Cells were then incubated at 37° C./5% CO^2 for 48 hours and fixed, permeabilized, Hoechst stained, and imaged as described above. The range of the Torsin1a localization effect was normalized to the percentage of cells with puncta in vehicle-treated delta-E cell line as the maximum and that in WT cell line as the minimum (FIG. 2, panels c-h). Cell count and EGFP-Torsin1a expression were normalized to their respective values in the vehicle-treated delta-E cell line as the maximum. All dose response data are the average of 4 independent experiments per dose. Untreated control data used for normalization are the average of 24 independent experiments.

[2] = test system: Flp-In T-REx 293 cells expressing delta-E Torsin1a; experiment: Cytotoxicity (cell count, cellular morphology) in the Torsin1a assay cell line; type: cell-based, human; settings: for ΔE TorsinA Mislocalization Assay Cytotoxicity EC50: Table 5; for Cytotox CC-v2 (dose response Curve Class) / Cytotox Efficacy / Cytotox Max Resp / AC50: Table 6; for toxicity (cell count, cellular morphology; in words): at effective concentrations; for AC50: read-out: Cytotox AC50
Experimental: as §1
(§2) Efficacy is calculated as the magnitude of the pathology correction relative to the mutant Torsin1a pathology. For example an efficacy=−100% would be equivalent to the WT TorsinA phenotype, and 0% would be equivalent to the Mutant TorsinA phenotype. CCv2 refers to the dose response Curve Class annotation, and AC refers to Active Concentration.

luciferase secretion = experiment: C.Luc. Secretion Assay (luciferase secretion, secretory deficits); type: cell-based; settings: for C.Luc. Secretion Assay Secretion EC50 / pEC50 / Emax: Table 5; for Emax: read-out: C.Luc. Secretion Assay Secretion Max Efficacy; for correction of secretory deficits (in words): orthogonal assays
Experimental: We tested each shRNA for its ability to rescue a previously described defect in luciferase secretion. Chen, P. et al. (2010) Hum. Mol. Genet. 19, 3502-15; Cao, S. et al. (2010) Dis. Model. Mech. 3, 386-96; Barrows, N. J., et al., (2010)J. Biomol. Screen. 15, 735-47.) DYT1 patient data were obtained from 4 independent patient-derived lines and WT data (black bar) from 3 normal healthy control lines. Each line was tested in 5 independent experiments that included 4 technical replicates each (with the exception of SCD data from 3 independent experiments).
(Cao, S. et al. (2010) Dis. Model. Mech. 3, 386-96.) Subsequent testing of additional HIV protease inhibitors supported the activity of this class of compounds and generated favorable structure-activity relationship (SAR) data from which to design improved compounds (Tables 5 and 6). The results with a subset of compounds were also observed in a Luciferase secretion assay (Tables 5 and 6).

[3] = Cytotoxicity (cell count, cellular morphology) in the Torsin1a assay cell line; type: cell-based, human; settings: human; for AC50: Table 6, read-out: Cytotox AC50; for EC50 at 48 h: Flp-In T-REx 293 cells inducibly expressing delta-E Torsin1a, Table 5, read-out: ΔE TorsinA Mislocalization Assay Cytotoxicity EC50
Experimental: as §1, §2

## CC(C)CN(C[C@@H](O)[C@H](Cc1ccccc1)NC(=O)O[C@H]1CCOC1)S(=O)(=O)c1ccc(N)cc1 [Amprenavir]
[1]
  ΔE TorsinA Mislocalization Assay Localization EC50: No Activity
[2]
  ΔE TorsinA Mislocalization Assay Cytotoxicity EC50: None
  Cytotox CC-v2 (dose response Curve Class): 4
Luciferase secretion
  C.Luc. Secretion Assay Secretion EC50: No Activity

## COC(=O)N[C@H](C(=O)N[C@@H](Cc1ccccc1)[C@@H](O)CN(Cc1ccc(-c2ccccn2)cc1)NC(=O)[C@@H](NC(=O)OC)C(C)(C)C)C(C)(C)C [Atazanavir]
[1]
  ΔE TorsinA Mislocalization Assay Localization EC50: No Activity
[2]
  ΔE TorsinA Mislocalization Assay Cytotoxicity EC50: None
  Cytotox CC-v2 (dose response Curve Class): 4
Luciferase secretion
  C.Luc. Secretion Assay Secretion EC50: No Activity

## CCN(CC)CCC(=O)N1N=C(c2c(-c3ccccc3)c3cc(Br)ccc3[nH]c2=O)CC1c1ccc(Br)cc1 (stereo not shown) [CCT020312]
[1]
  effect on delta-E Torsin1a localization (in words): dose-dependent reduction
[2]
  toxicity (cell count, cellular morphology; in words): highly toxic at effective concentrations

## C[C@H](NC(=O)Cc1cc(F)cc(F)c1)C(=O)N[C@H](C(=O)OC(C)(C)C)c1ccccc1 [DAPT]
[1]
  effect on delta-E Torsin1a localization (in words): no effect

## CC(C)CN(C[C@@H](O)[C@H](Cc1ccccc1)NC(=O)O[C@H]1CO[C@H]2OCC[C@H]21)S(=O)(=O)c1ccc(N)cc1 [Darunavir]
[1]
  ΔE TorsinA Mislocalization Assay Localization EC50: No Activity
Luciferase secretion
  C.Luc. Secretion Assay Secretion EC50: No Activity

## Cc1cccc(C)c1OCC(=O)NC(CCC(Cc1ccccc1)NC(=O)C(C(C)C)N1CCCNC1=O)Cc1ccccc1 (stereo not shown) [Des-hydroxy Lopinavir]
[1]
  % pathology CC-v2 (dose response Curve Class): −3
  AC50: 8.33 µM
  % pathology Max Resp: −33.96%
  % pathology Efficacy: −82.44%
[2]
  Cytotox CC-v2 (dose response Curve Class): −2.2
  Cytotox Efficacy: −77.66
  Cytotox Max Resp: −66.67
  AC50: 20.9 µM

## CC(C)(C)NC(=O)[C@@H]1CN(Cc2cccnc2)CCN1C[C@@H](O)C[C@@H](Cc1ccccc1)C(=O)N[C@H]1c2ccccc2C[C@H]1O [Indinavir sulfate]
[1]; Homo sapiens, Flp-In-T-REx-293
  AC50: 29.6 µM
[1]
  % pathology Max Resp: −97.76%
  % pathology Efficacy: −114.60%
[3]
  AC50: 37.2 µM
[2]
  Cytotox CC-v2 (dose response Curve Class): −3
  Cytotox Efficacy: −80.64
  Cytotox Max Resp: −67.80

## CC(C)(C)NC(=O)[C@@H]1CN(Cc2cccnc2)CCN1C[C@@H](O)C[C@@H](Cc1ccccc1)C(=O)N[C@H]1c2ccccc2C[C@H]1O [Indinavir, indinavir]
[1]; Homo sapiens, Flp-In-T-REx-293
  pEC50: 4.58
  Emax: 114%
[1]
  effect on delta-E Torsin1a localization (in words): corrected TorsinA localization in a dose-dependent fashion
[3]
  EC50 at 48 h: 35.2 µM
[2]
  toxicity (cell count, cellular morphology; in words): no cellular toxicity observed at effective doses
Luciferase secretion
  C.Luc. Secretion Assay Secretion EC50: No Activity

## CS(=O)(=O)O.Cc1c(O)cccc1C(=O)N[C@@H](CSc1ccccc1)[C@H](O)CN1C[C@H]2CCCC[C@H]2C[C@H]1C(=O)NC(C)(C)C.O [Nelfinavir mesylae hydrate]
[1]
  % pathology CC-v2 (dose response Curve Class): −1.1
  AC50: 2.7 µM
  % pathology Max Resp: −92.46%
  % pathology Efficacy: −75.26%
[2]
  Cytotox CC-v2 (dose response Curve Class): −1.1
  Cytotox Efficacy: −98.05
  Cytotox Max Resp: −95.64
  AC50: 6.05 µM

## Cc1c(O)cccc1C(=O)N[C@@H](CSc1ccccc1)[C@H](O)CN1C[C@H]2CCCC[C@H]2C[C@H]1C(=O)NC(C)(C)C [Nelfinavir, nelfinavir]
[1]; Homo sapiens, Flp-In-T-REx-293
  pEC50: 5.46
  Emax: 80%
[1]
  effect on delta-E Torsin1a localization (in words): corrected TorsinA localization in a dose-dependent fashion
[3]
  EC50 at 48 h: 6.05 µM
[2]
  toxicity (cell count, cellular morphology; in words): no cellular toxicity observed at effective doses
Luciferase secretion
  C.Luc. Secretion Assay Secretion EC50: No Activity

## CC(C)c1nc(CN(C)C(=O)N[C@H](C(=O)N[C@@H](Cc2ccccc2)C[C@H](O)[C@H](Cc2ccccc2)NC(=O)OCc2cncs2)C(C)C)cs1 [Ritonavir, ritonavir]
[1]; Homo sapiens, Flp-In-T-REx-293
  pEC50: 5.39
  Emax: 87%
  AC50: 2.96 µM
[1]
  % pathology Max Resp: −82.60%
  % pathology Efficacy: −92.96%
  effect on delta-E Torsin1a localization (in words): corrected TorsinA localization in a dose-dependent fashion; also recorded: restored
[2]
  Cytotox CC-v2 (dose response Curve Class): 4
  toxicity (cell count, cellular morphology; in words): no cellular toxicity observed at effective doses
Luciferase secretion
  pEC50: 5.43
  Emax: 49%
  correction of secretory deficits (in words): corrected secretory deficits

## CC(C)(C)NC(=O)[C@@H]1C[C@@H]2CCCC[C@@H]2CN1C[C@@H](O)[C@H](Cc1ccccc1)NC(=O)[C@H](CC(N)=O)NC(=O)c1ccc2ccccc2n1 [Saquinavir mesylate]
[1]; Homo sapiens, Flp-In-T-REx-293
  AC50: 8.33 µM
[1]
  % pathology Max Resp: −84.62%
  % pathology Efficacy: −85.98%
[3]
  AC50: 20.9 µM

## CC(C)(C)NC(=O)[C@@H]1C[C@@H]2CCCC[C@@H]2CN1C[C@@H](O)[C@H](Cc1ccccc1)NC(=O)[C@H](CC(N)=O)NC(=O)c1ccc2ccccc2n1 [Saquinavir, saquinavir]
[1]; Homo sapiens, Flp-In-T-REx-293
  pEC50: 5.03
  Emax: 88%
[1]
  effect on delta-E Torsin1a localization (in words): corrected TorsinA localization in a dose-dependent fashion
[3]
  EC50 at 48 h: 23.6 µM
Luciferase secretion
  pEC50: 5.09
  Emax: 34%
  correction of secretory deficits (in words): corrected secretory deficits

## Cc1c(O)cccc1C(=O)N[C@@H](CSc1ccccc1)[C@H](O)CN1C[C@H]2CCCC[C@H]2C[C@H]1C(=O)NC(C)(C)C [Viracept]
[1]; Homo sapiens, Flp-In-T-REx-293
  AC50: 5.26 µM
[1]
  % pathology Max Resp: −94.06%
  % pathology Efficacy: −119.39%
[3]
  AC50: 10.5 µM
[2]
  Cytotox CC-v2 (dose response Curve Class): −1.1
  Cytotox Efficacy: −106.32
  Cytotox Max Resp: −97.72

## N=C(N)N/N=C/c1c(Cl)cccc1Cl [guanabenz]
[1]
  effect on delta-E Torsin1a localization (in words): no effect

## CCCC(CCC)C(=O)O [valproic acid]
[1]
  effect on delta-E Torsin1a localization (in words): no effect
